Experimental data published in patent US9822136B2, “Chemical inhibitors of sebocyte function” (priority 2016, dated 2017).

Columns and labels:
cloned hTRPM8 channel = target: T1, cloned hTRPM8 channel (Homo sapiens, UniProt Q7Z2W7); assay: TRPM8 activation, FLIPR calcium assay in CHO cells; assay type: cell-based
T1 construct: host or cells: CHO cells
Description: The in vitro effects of test articles were first evaluated on cloned hTRPM8 channel. […] The test cells were Chinese Hamster Ovary (CHO) cells stably transfected with human TRPM8 cDNAs. […] Substances were evaluated at 8 concentrations (0.03 to 300 μM) with n=4 replicates per determination. For Fluorescence Imaging Plate Reader ([…]″) assay, cells were plated in 384-well black wall, flat clear-bottom microtiter plates (Type: BD Biocoat Poly-D-Lysine Multiwell Cell Culture Plate) at approximately 30,000 cells per well. Cells were incubated at 37° C. overnight to reach a near confluent monolayer appropriate for use in a fluorescence assay. The test procedure was to remove the growth media and to add 40 μL of HBPS containing Fluo-8 for 30 minutes at 37° C. 10 μL of test compound, vehicle, or control solutions in HBPS were then added to each well and read for 4 min using a Fluo-8 calcium kit and the […]″ instrument (Molecular Devices, Sunnyvale, California). […] J. Neurosci.
Concentration-response data were analysed via the FLIPR Control software that is supplied with the FLIPR System (MDS-AT) and fitted to a Hill equation of the following form: Response=Base+(Max−Base)/1+(xhalf/x)^rate, where: “Base” is the response at low concentrations of test compound; “Max” is the maximum response at high concentrations; “xhalf” is the EC50 (the concentration of test compound producing half-maximal activation); and “rate” is the Hill coefficient. Nonlinear least squares fits were made assuming a simple one-to-one binding model.

sebocytes [1] = assay: Sebocyte viability, MTT assay; assay type: cell-based, human
Description: (§1) The activities of 1-7 and 1-8 on an immortalized sebocyte cell line were examined in the laboratory of Prof Im Myung using methods previously described [Im et al. Epigallocatechin-3-gallate suppresses IGF-I-induced lipogenesis and cytokine expression in SZ95 sebocytes. J. Invest. Dermatol. 132, 2700-8 (2012)]. Proliferation of the sebocytes was measured using the MTT assay, by examination of micrographs of the cells in culture, and ^3H-thymidine incorporation. The effects of the test agents on lipogenesis were further studied by Oil Red O staining and analysis of the lipid composition of the cells. Studies were also conducted on signaling pathways for lipogenesis [PPAR and SREBP-1, Trivedi et al. Peroxisome proliferator-activated receptors increase human sebum production. J. Invest. Dermatol. 126, 2002-9 (2006)].
The MTT assay is a colorimetric assay for cell viability. MTT [3-(4,5-dimethylthiazol-2-yl)-2-5-diphenyltetrazolium bromide], a yellow tetra-azole dye, is reduced to purple formazan in living cells by NADPH-dependent oxidoreductase enzymes. When the number of viable cells decreases the amount of enzymatic activity and purple color decreases and this can be measured with a spectrophotometer.
(§2) 1-7 and 1-8 are sensory cooling agents on the skin and activators [agonists] of the TRPM8 ion channel protein. […] The indicators used for direct comparison were sebocyte viability measured in the MTT assay and then the ^3H-thymidine incorporation assay.

sebocytes [2] = assay: 3H-thymidine incorporation into sebocytes; assay type: cell-based, human; conditions: Homo sapiens, 3 h; uptake into sebocytes; NS = not significant
Description: as §1, §2

sebocytes [3] = assay: IGF-1 stimulated lipogenesis in sebocytes (Oil Red O, thin-layer and gas chromatography of lipids); assay type: cell-based, human; conditions: IGF-1 stimulated sebocytes
Description: as §1, with “132, 2700-8 (2012)].” left out, “Dermatol.” for “Dermatol. 126, 2002-9 (2006)].”
J. Invest. Dermatol. […] Oil Red 0 [Sudan Red 5B] is a diazo dye used for staining neutral triglycerides and lipids on cells.

[4] = Foaming of aqueous solution on manual shaking; assay type: physicochemical; conditions: 10 mg/mL in distilled water
Description: The foaming seen in 7B is characteristic of a surface active agent or “surfactant” and is caused by an amphiphilic structure.
Plain water will not make bubbles because the water molecules are more strongly attracted to each other than to air. But when a surfactant is added, the surface tension of the liquid is reduced and it can wrap itself around air to form foam or soap bubbles. The foaming is enhanced when the liquid is shaken vigorously.

T1 sequence (Q7Z2W7 whole entry): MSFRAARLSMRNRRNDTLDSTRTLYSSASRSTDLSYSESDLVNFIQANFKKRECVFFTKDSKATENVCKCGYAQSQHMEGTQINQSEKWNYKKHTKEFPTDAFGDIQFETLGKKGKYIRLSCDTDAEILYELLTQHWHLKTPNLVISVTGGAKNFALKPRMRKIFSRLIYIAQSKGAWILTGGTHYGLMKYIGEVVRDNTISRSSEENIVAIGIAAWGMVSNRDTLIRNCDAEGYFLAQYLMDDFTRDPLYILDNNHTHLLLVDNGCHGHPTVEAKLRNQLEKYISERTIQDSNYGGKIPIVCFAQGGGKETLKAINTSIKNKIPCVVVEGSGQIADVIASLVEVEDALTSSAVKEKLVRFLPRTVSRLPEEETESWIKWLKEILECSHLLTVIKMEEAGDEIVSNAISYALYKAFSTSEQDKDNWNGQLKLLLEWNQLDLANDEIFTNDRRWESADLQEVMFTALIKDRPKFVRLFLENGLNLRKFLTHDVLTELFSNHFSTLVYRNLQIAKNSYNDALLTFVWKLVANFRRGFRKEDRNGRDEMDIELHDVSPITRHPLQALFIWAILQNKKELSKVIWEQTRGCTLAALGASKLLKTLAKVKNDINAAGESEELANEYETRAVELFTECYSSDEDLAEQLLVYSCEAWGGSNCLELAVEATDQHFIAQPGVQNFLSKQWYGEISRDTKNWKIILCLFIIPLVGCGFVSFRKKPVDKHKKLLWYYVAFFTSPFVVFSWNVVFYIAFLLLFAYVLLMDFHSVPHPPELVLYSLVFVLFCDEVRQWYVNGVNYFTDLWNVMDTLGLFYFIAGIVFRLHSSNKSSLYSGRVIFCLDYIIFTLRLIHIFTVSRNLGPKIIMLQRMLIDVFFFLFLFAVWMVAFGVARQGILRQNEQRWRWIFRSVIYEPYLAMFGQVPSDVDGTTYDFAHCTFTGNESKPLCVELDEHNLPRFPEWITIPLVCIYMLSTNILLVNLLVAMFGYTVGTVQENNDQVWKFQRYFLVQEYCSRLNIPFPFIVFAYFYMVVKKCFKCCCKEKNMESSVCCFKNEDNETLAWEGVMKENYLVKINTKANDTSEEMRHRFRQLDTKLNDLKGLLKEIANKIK

Activity on TRPM8 (cloned hTRPM8 channel): low potency
Appearance after manual shaking (FIG. 7B) [4]: foaming
SMILES: CCCCCCCCCCCP(=O)(C(C)C)C(C)C [Code 1-11, 1-diisopropylphosphorylundecane]
Activity relative to 1-8 in the MTT sebocyte assay (sebocytes [1]; FIG. 4): 10,000 x
Sebocyte cell viability as % of controls (FIG. 4) (sebocytes [1]; at 0.10 μM): strongly inhibited
activity at 10 µM (sebocytes [2]): ≥ 88%
Levels / production of squalene (thin layer chromatography, FIG. 5) (sebocytes [3]): lowers
